Ends that are not written are not given here.
Tests used:
[1] = Diffusion of peptidoglycans through cartilage matrix (avidin-biotin stain); settings: aggrecan-depleted bovine cartilage explant, 10 μM diffused through articular surface for one hour
Protocol: Cartilage explants were obtained from the load bearing region of three month old bovine knee joints. Native aggrecan was removed from harvested cartilage explants leaving a matrix consisting primarily of type II collagen and residual GAG. This was achieved by treating explants with 0.5% (w/v) trypsin in HBSS for 3 hours at 37° C. (FIG. 13). After trypsin treatment explants were washed three times in HBSS and incubated with 20% FBS to inactivate residual trypsin activity. Peptidoglycan was dissolved in distilled water at 10 μM concentration and diffused through the articular surface of cartilage explants by placing 10 μL of the solution on the surface every ten minutes for one hour at room temperature (FIG. 14). Normal cartilage and aggrecan depleted cartilage were treated with 1×PBS as positive and negative controls respectively. After diffusion, explants were washed three times with 1×PBS and stored at −20° C. until further testing. Diffusion of peptidoglycan was confirmed by staining a midsagittal section of the tissue with streptavidin-horseradish peroxidase stain. The streptavidin stain binds to the biotin labeled molecule and is depicted as a brown color (FIGS. 15 and 16).

[2] = tested on: Hyaluronidase (Type II from Sheep Testes); test: Protection of hyaluronic acid from hyaluronidase degradation (dynamic viscosity); assay type: biochemical; settings: 0.5 wt % HA, 75:1 treatment to HA molar ratio
Protocol: Dynamic viscosity values of HA solutions were determined using the AR-G2. High molecular weight HA solutions have a large viscosity due to the extensive chain entanglement caused by the long chain length. Hyaluronidase (Type II from Sheep Testes, Sigma) cleaves the HA chain, creating shorter chains with less entanglement. The shorter HA chains will have a measurably lower viscosity. HA solutions were incubated with 100 units/mL hyaluronidase. Dynamic viscosities were determined using a time sweep with constant angular frequency and oscillatory stress initially and at 2 and 4-hour timepoints. Samples (at 0.5 wt % HA) consisted of HA, HA+CS, and HA+10.5GAH−CS. The treatment values were added at a 75:1 treatment to HA molar ratio. The percent degradation was calculated for each measurement by dividing the initial viscosity from the difference of the measured viscosity minus the initial viscosity.
Viscosities of each treatment without hyaluronidase (TES Buffer replaced the hyaluronidase volume) were initially measured and served as the baseline for the percent degradation calculations. The 0 hr timepoint involved the addition of the hyaluronidase, mixing of the solution, pipetting onto the rheometer, and the beginning equilibration operation of the machine. Therefore, the 0 hr timepoint occurred approximately two minutes after the addition of hyaluronidase. […]

[3] = tested on: Matrix metalloprotease-I (MMP-I); test: Collagen protection: degradation of collagen type I in ECM replicates by MMP-I (hydroxyproline assay); assay type: biochemical; settings: CI + HA + treatment, 50 hr at 37° C.
Protocol: ECM-based constructs containing collagen alone, collagen+HA+CS, or collagen+HA+10.5GAH−CS were created in 8-well chambered slides as described previously. The final sample volume was 200 μL consisting of 0.8 mg of collagen type I. Matrix metalloprotease-I (MMP-I, R&D Systems, Minneapolis, Minn.) at a concentration of 0.133 mg/mL, was activated following the protocol detailed in the manufacturer's instructions. Briefly, MMP-1, already dissolved in manufacturer's buffer (50 mM Tris, 10 mM CaCl2, 150 mM NaCl, 0.05% Brij-35, pH 7.5), was combined with an equal volume of 25 mM APMA (Sigma) in DMSO at 37° C. for 2 hrs to activate the enzyme. Upon activation, the MMP-1 solution was diluted two fold in water and was added to the sample as a 100 μL supernatant. […] Following hydrolysis, the amount of hydroxyproline (hyp) was analyzed according to the protocol developed by Reddy, et al. (Clin Biochem, 1996, 29: 225-9). […] After the development of the chlorophore, the samples were read on a spectrophotometer at a wavelength of 550 nm. Absorbance readings were compared to those obtained from known concentrations of collagen to determine the amount of collagen remaining in each sample.
Each replicate sample was constructed with 0.8 mg of CI, and after degradation, the remaining CI amount was determined by the protocol developed by Reddy et al. and converting that to CI amount by a set of CI standards. […]

aggrecan = test: Real-time PCR, aggrecan expression; assay type: cell-based, bovine; settings: chondrocytes in collagen scaffolds with versus without mAGC
Protocol: (§1) Following the cell culture study, constructs were stored in RNAlater solution (Ambion) at 4° C. for less than one week. Total mRNA was extracted using Nucleospin RNA II (Clontech) according to manufacturer's protocols. Extracted mRNA from all samples was quantified using Nanodrop 2000 spectrophotometer (Thermo Scientific) and reverse transcribed into cDNA using High Capacity cDNA Reverse Transcriptase Kit (Applied Biosystems). Real-time PCR was performed using Taqman Gene Expression Assays (Applied Biosystems) with the following primers: GAPDH (Bt03210913_gl), aggrecan (Bt03212186_ml) and collagen type II (Bt03251861_ml). 60 ng of cDNA template was prepared per 20 μL reaction for the two genes of interest and the endogenous gene. Real-time PCR analysis was carried out using a Taqman PCR Master Mix and 7500 Real-Time PCR System (Applied Biosystems). Data reported was normalized to GAPDH gene expression.

[4] = tested on: Sprague-Dawley rat knee joints; test: Animal model of osteoarthritis (surgical induction), microCT; assay type: in vivo, Sprague-Dawley rats; settings: six and eight weeks after OA induction surgery; 10 μl of a 1 μm mAGC weekly starting at week 4
Protocol: Sprague-Dawley rats (250-300 g) were used for surgery. The patellar tendon, the anterior and posterior cruciate ligaments and the medial, lateral collateral ligaments were transected. The medial and lateral meniscuses were totally menisectomized. The knee joint capsule was repaired with an absorbable suture and the skin was closed with a 4-0 monofilament nylon. Starting at week 4, 10 μl of a 1 μm mAGC was administered weekly.
The extent of inflammation was indicated by the MMP-13 probe (FIG. 18) in Sprague-Dawley rats treated with and without peptidoglycan at four, six and eight weeks post surgery (FIG. 19). […] Injured knees 6 weeks and 8 weeks following OA induction, (FIG. 21, Panels A and D, respectively), injured knees following peptidoglycan treatment (FIG. 21, Panels B and E, respectively), and Normal knee (FIG. 21, Panel C), are shown.

collagen type II = test: Real-time PCR, collagen type II expression; assay type: cell-based, bovine
Protocol: as §1

[5] = tested on: bovine chondrocytes in collagen scaffolds; test: In vitro inflammation model: CS release into media (DMMB assay); assay type: cell-based; settings: cumulative over eight-day culture, with and without 20 ng/mL IL-1β, versus scaffolds with CS
Protocol: (§2) Collagen scaffolds seeded with chondrocytes were stimulated with IL-1β and assessed for degradation products.
(§3) Primary chondrocytes were harvested from three-month-old bovine knee joints obtained from an abattoir within 24 hours of slaughter (Dutch Valley Veal). Cartilage slices, 150-200 μm thick, were shaved from the lateral femoral condyle and washed three times in serum-free DMEM/F-12 medium (50 μg/mL ascorbic acid 2-phosphate, 100 μg/mL sodium pyruvate, 0.1% bovine serum albumin, 100 units/mL penicillin, 100 μg/mL streptomycin and 25 mM HEPES) prior to digestion with 3% fetal bovine serum (FBS) and 0.2% collagenase-P (Roche Pharmaceuticals) at 37° C. for six hours. Released chondrocytes were filtered through 70 μm cell strainer and centrifuged at 1000 rpm three times for five minutes each in medium listed above supplemented with 10% FBS. The cell pellet was resuspended in 10% FBS supplemented media and plated on 10 cm dishes at 10,000 cells/mL in a 37° C., 5% CO2 humidified incubator until confluent. […]
(§4) GAG degradation was monitored by measuring CS released in cell culture media using the dimethylmethylene blue (DMMB) dye assay and computed with a chondroitin-6-sulfate standard curve. Similarly, type I collagen degradation in cell culture media was monitored using the Sircol Collagen Assay using manufacturer specified protocols (Bio-Color). […]

[6] = tested on: bovine chondrocytes in collagen scaffolds; test: In vitro inflammation model: collagen breakdown (Sircol assay); assay type: cell-based; settings: cumulative over eight-day culture, with and without 20 ng/mL IL-1β, versus scaffolds with CS
Protocol: as §2, §3, §4

## mAG(II)C: Collagen type II binding peptidoglycan with peptide WYRGRLGC (SEQ ID NO: 36) (also: attached to glycosaminoglycan backbone)
[1]
  depth of penetration into tissue: approximately 200 um

## chondroitin sulfate [CS]
[2]; 0 hr timepoint (about 2 min after hyaluronidase)
  percent degradation of HA: almost complete degradation
[2]; 2 hr timepoint
  percent degradation of HA: above 90%
[3]
  percent degradation of CI: 74.7%

## mAGC: HA binding peptidoglycan (aggrecan mimic): GAHWQFNALTVRGGGC (SEQ ID NO: 35) peptides attached to chondroitin sulfate; peptide number not stated (also: attached to chondroitin sulfate)
aggrecan
  aggrecan expression (normalized to GAPDH): lower aggrecan expression
[4]
  cartilage by MicroCT: re-growth of new cartilage
Collagen type II; aligned collagen scaffolds
  level of collagen type II expression (normalized to GAPDH): higher in scaffolds prepared with mAGC
Collagen type II; unaligned scaffolds
  level of collagen type II expression (normalized to GAPDH): higher in scaffolds prepared without mAGC
[5]
  amount of CS released into cell culture media: significantly decreased
[6]
  amount of collagen released into cell culture media: significantly decreased

Source: patent US9217016B2, “Hyaluronic acid-binding synthetic peptidoglycans, preparation, and methods of use” (SYMIC IP, LLC, priority 2011, dated 2015)
